# Reference: patent US8841324B2, “Heterocyclic compounds as autotaxin inhibitors” (Merck Patent GmbH, priority 2009, dated 2014)
# Biological target: T1, recombinant autotaxin (Homo sapiens, UniProt Q13822)
# T1 construct: made in house; host or cells: Hi5 insect cells (baculovirus)
# Assay: Autotaxin test (enzyme test), Amplex Red fluorescence readout
# Type: biochemical
# Settings: Autotaxin inhibition (enzyme test); substrate LPC 75 μM, 37° C. for 90 min
# Experimental: Pharmacological Data Autotaxin Inhibition (Enzyme Test)
# Autotaxin Test (Enzyme Test)
# The autotaxin activity is measured indirectly using Amplex Red reagent. Amplex Red is measured here as fluorogenic indicator for the H2O2 formed. In detail, autotaxin converts the substrate lysophosphatidylcholine (LPC) into phosphocholine and lysophosphatidylic acid (LPA). After this reaction, the phosphocholine is reacted with alkaline phosphatase to give inorganic phosphate and choline. In the next step, choline is oxidised by choline oxidase to give betaine, with formation of H2O2. H2O2 reacts with Amplex Red reagent in the presence of peroxidase (horseradish peroxidase) in a 1:1 stoichiometry and forms the highly fluorescent resorufin. The fluorescence is measured in a reaction-dependent kinetic mode in order that fluorescent signals from possible other fluorescent substances which are not involved in the reaction can be corrected out.
# 1.5 μl of a standard solution or of the test substances (substances with the name A(n)) in individual concentrations dissolved in 20 mM Hepes pH 7.2 with a maximum of 7.7% of DMSO are pre-incubated together with 10 μl (16 ng) of highly purified recombinant autotaxin in a black microtitre plate provided with 384 wells at 22° C. for 30 min. The reaction is then initiated by addition of 5 μl of L-α-lysophosphatidylcholine (LPC), where the final concentration of LPC is 75 μM. The mixture is incubated at 37° C. for 90 min. After the incubation, Amplex Red reagent, peroxidase (horseradish peroxidase) and choline oxidase is added, and the fluorescence is immediately measured at 612 nm with excitation of 485 nm in a “Tecan Ultra multimode” reader. The activity of autotaxin is calculated indirectly via detection of the H2O2 formed.
# • Microtitre plate: PS microplate, 384 wells, small volume, black Corning, Cat#3677 • Protein: recombinant autotaxin (Baculovirale Hi5 Expression) • Substrate: L-α-lysophosphatidylcholine (chicken egg)); Avanti Polar Lipids #830071P • Standard: C14 LPA, Avanti Polar Lipids, Cat#857120P • Detection reagent: Amplex Red reagent; Invitrogen # A12222; dissolved in 1.923 ml of DMSO peroxidase type VI-A (horseradish) from Sigma # P6782; dissolved in 7.45 ml of test buffer, choline oxidase; Sigma # C5896; dissolved in 2.47 ml of test buffer • Detection reagent mix: 1:100 dilution of Amplex Red reagent in test buffer • Test buffer: 200 mM Tris HCl, Merck, Cat #1.08219, pH 7.9, 0.1% of BSA, lipid-free, Roche Cat#775835
row,Compound,IC50
1,"O=C(CC(=O)NC1CCN(C(=O)OCc2ccc(Cl)cc2)CC1)Nc1ccc2[nH]nnc2c1 [Compound 39, 4-chlorobenzyl 4-[2-(1H-benzotriazol-5-ylcarbamoyl)acetylamino]piperidine-1-carboxylate]",100 to 1000 nM
2,"O=C(CN1CCN(C(=O)CCOc2ccc(Cl)cc2)CC1)c1ccc2[nH]c(=O)oc2c1 [Compound 27, 6-(2-{4-[3-(4-chlorophenoxy)propionyl]piperazin-1-yl}acetyl)-3H-benzoxazol-2-one]",> 1000 nM
3,"O=C(OCc1cc(Cl)cc(Cl)c1)N1CCN(CCC(O)c2ccc3[nH]c(=O)oc3c2)CC1 (stereo not drawn) [Compound 13, 3,5-dichlorobenzyl 4-[3-hydroxy-3-(2-oxo-2,3-dihydrobenzoxazol-6-yl)propyl]piperazine-1-carboxylate]",100 to 1000 nM
4,"O=C(CNC1CCN(C(=O)OCc2cc(Cl)cc(Cl)c2)CC1)Nc1ccc2[nH]c(=O)oc2c1 [Compound 11, 3,5-dichlorobenzyl 4-{[(2-oxo-2,3-dihydrobenzoxazol-6-ylcarbamoyl)methyl]amino}piperidine-1-carboxylate]",100 to 1000 nM
5,"O=C(OCc1ccc(Cl)cc1)N1CCN(CCC(F)(F)c2ccc3[nH]c(=O)oc3c2)CC1 [Compound 17, 4-chlorobenzyl 4-[3,3-difluoro-3-(2-oxo-2,3-dihydrobenzoxazol-6-yl)propyl]piperazine-1-carboxylate]",100 to 1000 nM
6,"O=C(Cc1ccc2[nH]nnc2c1)N1CCN(C(=O)OCc2ccc(Cl)cc2)CC1 [Compound 24, 4-chlorobenzyl 4-(2-1H-benzotriazol-5-ylacetyl)piperazine-1-carboxylate]",> 1000 nM
7,"O=C(CCNC(=O)N1CCN(C(=O)OCc2ccc(Cl)cc2)CC1)Nc1ccc2[nH]nnc2c1 [Compound 33, 4-chlorobenzyl 4-[2-(1H-benzotriazol-5-ylcarbamoyl)ethyl-carbamoyl]piperazine-1-carboxylate]",> 1000 nM
8,"O=C(OCc1cc(Cl)cc(Cl)c1)N1CCN(CCN2CCC(c3ccc4[nH]c(=O)oc4c3)=N2)CC1 [Compound 21, 3,5-dichlorobenzyl 4-{2-[3-(2-oxo-2,3-dihydrobenzoxazol-6-yl)-4,5-dihydropyrazol-1-yl]ethyl}piperazine-1-carboxylate]",> 1000 nM

# More lines, now with the values ahead:
row,IC50,Compound
1,> 1000 nM,"O=C(NCCN1CCN(C(=O)OCc2ccc(Cl)cc2F)CC1)c1ccc2[nH]nnc2c1 [Compound A3, 4-Chloro-2-fluorobenzyl 4-{2-[(1H-benzotriazole-5-carbonyl)amino]ethyl}piperazine-1-carboxylate]"
2,> 1000 nM,"O=C(OCc1cc(Cl)cc(Cl)c1)N1CCN(CC(O)c2ccc3[nH]c(=O)oc3c2)CC1 (stereo not drawn) [Compound A18, 3,5-Dichlorobenzyl 4-[2-hydroxy-2-(2-oxo-2,3-dihydrobenzoxazol-6-yl)ethyl]piperazine-1-carboxylate]"
3,> 1000 nM,"O=C(CCCN1CCN(C(=O)OCc2ccc(Cl)cc2)CC1)Nc1ccc2[nH]nnc2c1 [Compound A14, 4-Chlorobenzyl 4-[3-(1H-benzotriazol-5-yl-carbamoyl)propyl]piperazine-1-carboxylate]"
4,> 1000 nM,"O=C(NC1[C@H]2CN(C(=O)OCc3cc(Cl)cc(Cl)c3)C[C@@H]12)c1ccc2nn[nH]c2c1 (stereo partly drawn) [Compound A17, 3,5-Dichlorobenzyl (1R,5S)-6-[(3H-benzotriazole-5-carbonyl)amino]-3-azabicyclo[3.1.0]hexane-3-carboxylate]"
5,> 1000 nM,"O=C(Nc1ccc2[nH]c(=O)oc2c1)C(c1ccccc1)N1CCN(C(=O)OCc2ccc(Cl)cc2)CC1 (stereo not drawn) [Compound A10, 4-Chlorobenzyl 4-[(2-oxo-2,3-dihydrobenzoxazol-6-ylcarbamoyl)phenylmethyl]piperazine-l-carboxylate]"
6,> 1000 nM,"O=C(CN1CCC(NC(=O)OCc2cc(Cl)cc(Cl)c2)C1)Nc1ccc2[nH]nnc2c1 (stereo not drawn) [Compound A16, 3,5-Dichlorobenzyl {1-[(1H-benzotriazol-5-yl-carbamoyl)methyl]pyrrolidin-3-yl}crbamate]"
7,> 1000 nM,"O=C(NCCN1CCN(C(=O)OCc2ccc(C(F)(F)F)cc2)CC1)c1ccc2[nH]nnc2c1 [Compound A2, 4-Trifluoromethylbenzyl 4-{2-[(1H-benzotriazole-5-carbonyl)amino]ethyl}piperazine-1-carboxylate]"
8,100 to 1000 nM,"O=C(NCCN1CCN(C(=O)OCc2cc(Cl)cc(Cl)c2)CC1)c1ccc2[nH]nnc2c1 [Compound A1, 3,5-Dichlorobenzyl 4-{2-[(1H-benzotriazole-5-carbonyl)amino]ethyl}piperazine-1-carboxylate]"
9,> 1000 nM,"O=C(CCN1CCN(C(=O)OCc2ccc(Cl)cc2)CC1)Nc1ccc2[nH]c(=O)oc2c1 [Compound A13, 4-Chlorobenzyl 4-[2-(2-oxo-2,3-dihydrobenzoxazol-6-ylcarbamoyl)ethyl]piperazine-1-carboxylate]"
10,> 1000 nM,"O=C(CN1CCN(C(=O)OCc2ccc(Cl)cc2)CC1)Nc1ccc2[nH]c(=O)oc2c1 [Compound A8, 4-Chlorobenzyl 4-[(2-oxo-2,3-dihydrobenzoxazol-6-ylcarbamoyl)methyl]piperazine-1-carboxylate]"
